We go through 98 compounds from ChEMBL document CHEMBL3507680, “University of Dundee, Gates Library screen for HepG2 cell viability”.

This series is described as follows: Human HepG2 cell viability assay in 384 well format. Format: toxicity, cell-based. Details: dose 125 nL, time 70.5 hour; cytotoxicity at 70.5 h: concentration not given beside the values. The settings on record: HepG2 cells, read-out: Inhibition.
For the compound `Cc1cccc(C(C)C)c1NC(=O)NCCN(C(C)C)C(C)C`, the cytotoxicity at 70.5 h was -4.96%.

On to `CC1CCC(NS(=O)(=O)CC(=O)Nc2ccc(N3CCCC3)cn2)CC1` (stereo not drawn), for which the cytotoxicity at 70.5 h is -5.53%.

On to `COCCNC(=O)[C@@]12CCO[C@@H]1CCN(Cc1cc(C)on1)C2`, for which the cytotoxicity at 70.5 h came to 7.02%.

Take `O=C(c1n[nH]c2c1CN(C1CCOCC1)CC2)N1CCCC1`: the cytotoxicity at 70.5 h was -6.32%.

Regarding `Cc1c[nH]nc1C1CCN(C(=O)C2CCCC2)C1` (stereo not drawn), the cytotoxicity at 70.5 h was -5.07%.

`O=S(=O)(Cc1ccccc1Cl)NC(CO)c1ccco1` (stereo not drawn): the cytotoxicity at 70.5 h was -6.59%.

Take `CCc1noc(CC)c1CC(=O)N1CCN(C(=O)C2CCCC2)CC1`: the cytotoxicity at 70.5 h was -9.43%.

Regarding `CC1=CCN(S(=O)(=O)c2cccc(C(=O)N3CCCN(C)CC3)c2)CC1`, the cytotoxicity at 70.5 h was -10.6%.

On to `COCCN(Cc1sccc1C)C(=O)c1c(O)cccc1F`, for which the cytotoxicity at 70.5 h is -5.43%.

In the case of `CCOCC(O)CN1CCN(C(=O)Cc2cccc(C)c2)CC1` (stereo not drawn), the cytotoxicity at 70.5 h is -4.31%.

`CCc1nc(CC2CN(c3ncnc4nc(C)cc(C)c34)CCO2)no1` (stereo not drawn): the cytotoxicity at 70.5 h is -19%.

Turning to `Cc1ccc2c(c1)C1(CC(=O)Nc3[nH]ncc31)C(=O)N2C` (stereo not drawn), the cytotoxicity at 70.5 h was -21.9%.

For the compound `Cc1cccc(OCC2CCCN(C(=O)Cn3ccccc3=O)C2)c1` (stereo not drawn), the cytotoxicity at 70.5 h worked out at 5.85%.

Regarding `c1csc(CN2C[C@H](OCC3CCOCC3)[C@H]3COC[C@H]32)n1`, the cytotoxicity at 70.5 h was 14.6%.

As to `Cc1ccc(C(=O)O)c(N2CC(C)(C)[C@@](C)(O)C2)n1`, the cytotoxicity at 70.5 h was -10.6%.

With `CCOCCOC(C)C(=O)Nc1ccc2ccn(CC(=O)NC)c2c1` (stereo not drawn), the cytotoxicity at 70.5 h was -13.2%.

In the case of `COc1ccc(-n2cccn2)c(CN2CCOCC(CN(C)C)C2)c1` (stereo not drawn), the cytotoxicity at 70.5 h was 18.8%.

Turning to `CC(NCCCN1CCCN(C)CC1)C(C)(C)C` (stereo not drawn), the cytotoxicity at 70.5 h was -11.8%.

On to `O=C(NCc1cncc2c1CCN(Cc1cccc(F)c1)C2)C1CC1`, for which the cytotoxicity at 70.5 h is -1.35%.

Regarding `CN(C)c1ccc(C(=O)N2CCC(c3cc4cnccc4[nH]3)CC2)cc1`, the cytotoxicity at 70.5 h is -0.667%.

With `Cn1ccnc1CNCC1CCCN1c1cccnn1` (stereo not drawn), the cytotoxicity at 70.5 h was -4.3%.

In the case of `CNC(=O)CN1CCO[C@H]2CN(C(=O)C3CC3)C[C@H]21`, the cytotoxicity at 70.5 h is -2.66%.

Regarding `CN(C)C(=O)CN1C(=O)CO[C@@H]2CN(c3ccccn3)C[C@H]21`, the cytotoxicity at 70.5 h was -7.96%.

For `CCOC(=O)CN(C)C1CCc2ccccc21` (stereo not drawn), the cytotoxicity at 70.5 h is 26.7%.

With `CC(C)c1cc(C(=O)N2CCCC(n3cncn3)C2)n[nH]1` (stereo not drawn), the cytotoxicity at 70.5 h is 6.33%.

Consider `O=C(NCCn1ccnc1)c1ccn(-c2ccc(F)cc2)n1`, for which the cytotoxicity at 70.5 h is -2.38%.

As for `Cc1ncc(CN2CCC(n3cc(-c4ccc(F)cc4)nn3)CC2)cn1`, the cytotoxicity at 70.5 h is -2.17%.

Turning to `CCOc1ccccc1CC(=O)N1CCCC(c2ncc[nH]2)C1` (stereo not drawn), the cytotoxicity at 70.5 h is -0.431%.

Consider `COc1cccc(N2CCN(Cc3cccc(CCN)c3)CC2=O)c1`, for which the cytotoxicity at 70.5 h was -6.65%.

In the case of `CO[C@H]1CN(Cc2ccc(F)c(F)c2)C[C@@]12CCCO2`, the cytotoxicity at 70.5 h was -2.35%.

For the compound `O=C1CN(C(=O)CN(CC2CCC2)CC(F)(F)F)CCN1`, the cytotoxicity at 70.5 h was -9.35%.

For the compound `CC(C(=O)N(C)Cc1noc(C2CCC2)n1)N1CCc2ccccc2C1` (stereo not drawn), the cytotoxicity at 70.5 h was 23.9%.

Consider `Cc1nnc(CN(C)CC2CCCCC2)o1`, for which the cytotoxicity at 70.5 h is -11.8%.

As for `COc1cccc2c1ccn2CCC(=O)N1CCC(C(=O)O)CC1`, the cytotoxicity at 70.5 h is -5.23%.

Take `CC(C)c1nccn1C1CCCN(C(=O)c2ccsc2)C1` (stereo not drawn): the cytotoxicity at 70.5 h was -2.65%.

In the case of `CC1CCN(c2cc(-n3cnc(C(=O)N4CCSCC4)c3)ncn2)CC1`, the cytotoxicity at 70.5 h was -13.5%.

Consider `O=C(O)c1ccccc1-n1cnc(CN2CCCCCC2)c1`, for which the cytotoxicity at 70.5 h was -1.66%.

Take `Cc1noc2ncc(C(=O)N3CCCC(n4ccnc4C)C3)cc12` (stereo not drawn): the cytotoxicity at 70.5 h was -7.39%.

Consider `O=C(CCOc1cccc(F)c1)N1CCCC1Cn1cccn1` (stereo not drawn), for which the cytotoxicity at 70.5 h was -0.422%.

As for `COC(=O)Cn1c(C)cc(=O)n2nc(-c3cccs3)nc12`, the cytotoxicity at 70.5 h turned out to be 13.3%.

For the compound `N#Cc1cccc(CN2C[C@@H](NC(=O)C3CC3)[C@H]3OCCC[C@H]32)c1`, the cytotoxicity at 70.5 h is -12.1%.

Turning to `COCCOCCCNC(=O)c1cc(Cl)cc2cccnc12`, the cytotoxicity at 70.5 h was -18.1%.

For the compound `Cc1nc(COc2ccc(CNCCn3cccn3)cc2)cs1`, the cytotoxicity at 70.5 h was 4.56%.

With `Cc1nn(Cn2ccc(C(=O)N3CCOCC3)n2)c(C)c1Cl`, the cytotoxicity at 70.5 h is -9.86%.

For `CC(c1ccc(Br)cc1)N1CCCN(C(N)=O)CC1` (stereo not drawn), the cytotoxicity at 70.5 h was -5.26%.

On to `O=C(C1CCCC1)N1CCCC([C@@H]2C[C@H](C(F)F)n3ncnc3N2)C1` (stereo partly drawn), for which the cytotoxicity at 70.5 h is -6.92%.

On to `CS(=O)(=O)NC1CCN(C(=O)CCn2cccn2)CC1`, for which the cytotoxicity at 70.5 h was -9.56%.

With `OCC1COCCN(Cc2cc(C3CCCCC3)no2)C1` (stereo not drawn), the cytotoxicity at 70.5 h was -9.08%.

With `Cc1ccccc1NC(=O)N1CCN(C(=O)C2CC2)[C@@H]2CS(=O)(=O)C[C@@H]21`, the cytotoxicity at 70.5 h is -6.63%.

In the case of `CCCS(=O)(=O)CCSc1cccc(C#N)c1`, the cytotoxicity at 70.5 h is -11.2%.

For `N#Cc1nccnc1N1CCC(CSc2ccccc2)C1` (stereo not drawn), the cytotoxicity at 70.5 h is -9.74%.

For the compound `CC(=O)N1CCC(c2[nH]ncc2S(C)(=O)=O)CC1`, the cytotoxicity at 70.5 h is -5.52%.

Regarding `CCc1cc(NC2CCN(S(C)(=O)=O)CC2)n2nc(C)c(C)c2n1`, the cytotoxicity at 70.5 h was -1.04%.

Take `Cn1nc(C(=O)N2CCOCC2)cc1C(=O)Nc1c(Cl)cccc1Cl`: the cytotoxicity at 70.5 h is -2.69%.

As for `CNc1nc(C(=O)N2CCCC(c3nccn3CC3CCC3)C2)cs1` (stereo not drawn), the cytotoxicity at 70.5 h stood at 8.97%.

With `CN(Cc1ccccc1C(F)(F)F)C(C(N)=O)c1ccccc1` (stereo not drawn), the cytotoxicity at 70.5 h stood at 10.2%.

On to `O=C(O)C1CCN(C(=O)CCn2ccc3cc(Br)ccc32)CC1`, for which the cytotoxicity at 70.5 h was -15.9%.

In the case of `Cc1cnc(N2CC[C@@H](N3CCOCC3)[C@@H]2Cc2ccncc2)nc1`, the cytotoxicity at 70.5 h was -1.98%.

As for `CN(C)c1ncccc1CNS(=O)(=O)c1ccccc1Cl`, the cytotoxicity at 70.5 h was -4.36%.

Regarding `O=C1N(c2cccc(F)c2)Cc2nc(=O)n(Cc3ccccc3Cl)n21`, the cytotoxicity at 70.5 h was -18.7%.

As to `Cc1csc(NC(=O)C(C)Oc2ccc3c(c2)OCO3)n1` (stereo not drawn), the cytotoxicity at 70.5 h is -9.39%.

For the compound `CCn1cnnc1CNC(=O)N1CCC(CN2CCCCCC2)CC1`, the cytotoxicity at 70.5 h was -7.73%.

For the compound `CSc1ccc(C2SCC(=O)Nc3c2c(=O)[nH]n3C2CCOCC2)cc1` (stereo not drawn), the cytotoxicity at 70.5 h was -23.9%.

For `COc1ccc(N2CCN(Cc3nc(CSC)no3)C(C)C2=O)cc1` (stereo not drawn), the cytotoxicity at 70.5 h was -21.8%.

Regarding `COCc1noc(-c2ccc(N(C)Cc3ccc(C)o3)nc2)n1`, the cytotoxicity at 70.5 h was -2.55%.

Take `Cc1n[nH]c(C2CN(CC(=O)NCCc3ccccc3C)CCO2)n1` (stereo not drawn): the cytotoxicity at 70.5 h was -109%.

For `CN(CC(=O)N1CC(C)(C)[C@](O)(C2CC2)C1)Cc1ccncc1`, the cytotoxicity at 70.5 h was -3.61%.

As for `CC(C)NS(=O)(=O)c1cc(C(=O)O)cc(-c2ccccc2CN(C)C)c1`, the cytotoxicity at 70.5 h was -1.54%.

In the case of `Cc1cccc(C(=O)N2CCc3c(COCC4CC4)cncc3C2)n1`, the cytotoxicity at 70.5 h was -10.4%.

Turning to `CCN(CC)C(CNC(=O)c1ccc(-n2cncn2)cc1)c1ccsc1` (stereo not drawn), the cytotoxicity at 70.5 h was -3.69%.

For `CCC1=NC(SCC(=O)c2ccccc2)c2cc(CC)sc2N1` (stereo not drawn), the cytotoxicity at 70.5 h is 13.5%.

`NCC(=O)N1CCC(c2ccnc(Nc3cc(C(F)(F)F)ccn3)n2)C1` (stereo not drawn): the cytotoxicity at 70.5 h is 16.8%.

Turning to `CC(C)CCN1Cc2c(C(=O)N3CCCC3)nn(C)c2C1`, the cytotoxicity at 70.5 h was determined as 15%.

For the compound `OC1(CN2CCCCC2)CCN(c2cc(C(F)(F)F)ccn2)C1` (stereo not drawn), the cytotoxicity at 70.5 h is -22.3%.

For the compound `O=C(NCCN1CCOCC1)c1ccc(-n2ccc3ccccc32)s1`, the cytotoxicity at 70.5 h was -8.71%.

Take `COCc1cncc2c1CCN(C(=O)c1ccsc1)C2`: the cytotoxicity at 70.5 h is 9.92%.

In the case of `Cc1ccc(O)c(C(=O)NCCS(=O)(=O)Cc2ccccc2)c1`, the cytotoxicity at 70.5 h was -5.32%.

For the compound `O=C(CCc1ccccc1F)NS(=O)(=O)c1ccc2c(c1)OCCCO2`, the cytotoxicity at 70.5 h was -3.8%.

Take `Cc1ccc(N2CC[C@]3(O)CCN(CCN4CCCC4=O)C[C@@H]3C2)nn1`: the cytotoxicity at 70.5 h worked out at 0.21%.

`O=C(c1cccs1)N1CCN(CC2CC2)c2ncccc2C1`: the cytotoxicity at 70.5 h was -21%.

With `O=C(CN1CCCC1Cn1cncn1)NCC1(c2ccccc2)CC1` (stereo not drawn), the cytotoxicity at 70.5 h is -5.75%.

Take `CCCNC(=O)C1CCN(Cc2csc(CC)n2)CC1`: the cytotoxicity at 70.5 h turned out to be 0.277%.

As to `O=C1C[C@@H]2CCN(Cc3ccccc3)C[C@@H]2CCN1C1CCCCC1`, the cytotoxicity at 70.5 h turned out to be 6.87%.

`COc1cccc(CN2C[C@H]3CCNCC[C@H]3S2(=O)=O)c1`: the cytotoxicity at 70.5 h was 18.8%.

In the case of `N[C@H]1CN(C(=O)c2ccccc2OCc2ccccc2)C[C@@H]1C1CC1`, the cytotoxicity at 70.5 h was -11.7%.

As for `CCCS(=O)(=O)N1C[C@@H]2CN(Cc3ccco3)CCO[C@@H]2C1`, the cytotoxicity at 70.5 h is -2.23%.

As to `Cn1c(=O)oc2cc(S(=O)(=O)N3CCCCC3)c(Cl)cc21`, the cytotoxicity at 70.5 h was found to be 47.9%.

Take `CC(C)CNC(=O)NC(=O)CNc1ccccc1SCC(C)C#N` (stereo not drawn): the cytotoxicity at 70.5 h is -2.52%.

For `Cc1nc[nH]c1CN1CCCC(CNC(=O)c2ccc(N)nc2)C1` (stereo not drawn), the cytotoxicity at 70.5 h was -6.47%.

In the case of `Cc1oc(C(C)C)cc1C(=O)N1CCN(c2cnn(C)c(=O)c2)CC1`, the cytotoxicity at 70.5 h is -3.48%.

Regarding `COc1cc(C(=O)NCC2(N(C)C)CCN(C)CC2)c2ccccc2n1`, the cytotoxicity at 70.5 h stood at 0.627%.

`Cn1cc(CNC[C@H]2Cn3ccnc3CO2)c2ccccc21`: the cytotoxicity at 70.5 h was -5.61%.

With `CN(C)Cc1cncc2c1CCN(Cc1ccoc1)C2`, the cytotoxicity at 70.5 h is -4.55%.

Regarding `O=C1C(N2CCN(c3ccccc3Cl)CC2)CCN1C1CCOCC1` (stereo not drawn), the cytotoxicity at 70.5 h was -5.64%.

For the compound `CCC/N=c1/c(NC(=O)NCCOC)c(O)oc2ccccc12`, the cytotoxicity at 70.5 h worked out at 25.8%.

With `Cn1c(CNc2c(F)cccc2-n2cccn2)cc(=O)n(C)c1=O`, the cytotoxicity at 70.5 h is 0.334%.

As to `Cc1noc(C)c1CC(=O)N[C@@H]1CC[C@@H](Oc2ccccc2)[C@@H]1O`, the cytotoxicity at 70.5 h was -3.35%.

Consider `Cc1cccc2[nH]cc(CC(=O)N3CCC(Nc4cccnn4)CC3)c12`, for which the cytotoxicity at 70.5 h was found to be 0.978%.
